Measurements as given in patent US20060069132A1, “Azolecarboxamide herbicides” (priority 2004, published 2006).

What was measured:
winter barley = assay: Test C postemergence herbicide test; assay type: in vivo, Hordeum vulgare
How it was run: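 Ratings (0 = no effect, 100 = complete control) come from visual comparison with untreated plants after 12 to 14 days in the greenhouse. Treatment was postemergence at the 1- to 4-leaf stage (2–18 cm), or at the 2-leaf stage for the flooded paddy barnyardgrass.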

blackgrass = assay: Test C postemergence herbicide test; assay type: in vivo, Alopecurus myosuroides
How it was run: (§1)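 Injury scored visually against controls on a 0 (no effect) to 100 (complete control) scale, 12 to 14 days after treatment in greenhouse. Flooded paddy plants treated at 2-leaf stage; postemergence plants at 1- to 4-leaf stage, 2 to 18 cm tall.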

canarygrass = assay: Test C postemergence herbicide test; assay type: in vivo, Phalaris minor
How it was run: as §1

downy bromegrass = assay: Test C postemergence herbicide test; assay type: in vivo, Bromus tectorum
How it was run: as §1

green foxtail = assay: Test C postemergence herbicide test; assay type: in vivo, Setaria viridis
How it was run: as §1

Italian ryegrass = assay: Test C postemergence herbicide test; assay type: in vivo, Lolium multiflorum
How it was run: as §1

wheat = assay: Test C postemergence herbicide test; assay type: in vivo, Triticum aestivum
How it was run: as §1

wild oat = assay: Test C postemergence herbicide test; assay type: in vivo, Avenafatua
How it was run: as §1

windgrass = assay: Test C postemergence herbicide test; assay type: in vivo, Apera spica-venti
How it was run: as §1

purple nutsedge = assay: Test E pre-/postemergence herbicide test; assay type: in vivo, Cyperus rotundus
How it was run: (§2)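 In this greenhouse assay, compounds in a solvent vehicle containing surfactant were applied pre- and postemergence, the latter to plants 2 to 18 cm high. Control was judged by eye after 12 to 14 days on a 0 to 100 scale.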

dallisgrass = assay: Test E pre-/postemergence herbicide test; assay type: in vivo, Paspalum dilatatum
How it was run: as §2

broadleaf signalgrass = assay: Test E pre-/postemergence herbicide test; assay type: in vivo, Brachiaria platyphylla
How it was run: as §2

tropical spiderwort = assay: Test E pre-/postemergence herbicide test; assay type: in vivo, Commelina benghalensis
How it was run: as §2

itchgrass = assay: Test E pre-/postemergence herbicide test; assay type: in vivo, Rottboellia cochinchinensis
How it was run: as §2

[1] = Postemergence, 500 g ai/ha, scale 0 to 100
[2] = Postemergence, 250 g ai/ha, scale 0 to 100, 0 no effect, 100 complete control
[3] = postemergence, 125 g ai/ha, scale 0 to 100
[4] = postemergence, 62 g ai/ha, scale 0 to 100
[5] = Postemergence, 500 g ai/ha, scale 0 to 100, 0 no effect, 100 complete control
[6] = Preemergence, 250 g ai/ha, scale 0 (no effect) to 100 (complete control)
[7] = Preemergence, 500 g ai/ha, scale 0 (no effect) to 100 (complete control)
[8] = Preemergence, 62 g ai/ha, scale 0 to 100
[9] = Preemergence, 125 g ai/ha, scale 0 to 100
[10] = Preemergence, 125 g ai/ha, scale 0 (no effect) to 100 (complete control)
[11] = Postemergence, 250 g ai/ha, scale 0 to 100

Cc1nn(C(C)(C)C)nc1C(=O)Nc1cccc(C(=O)N(C)C)c1 [Compound 391]
20: Plant response rating, Wheat (wheat; [3])
65: Blackgrass plant response rating (blackgrass; [1]) | Plant response rating, Canarygrass (canarygrass; [5]) | Plant response rating, Bromegrass, Downy (downy bromegrass; [5]) | Plant response rating, Foxtail, Green (green foxtail; [5]) | Plant response rating, Ryegrass, Italian (Italian ryegrass; [5]) | Plant response rating, Oat, Wild (wild oat; [5]) | Plant response rating, Windgrass (windgrass; [3])
10: Plant response rating, Barley, Winter (winter barley; postemergence, 125 g ai/ha, scale 0 to 100 (0 no effect, 100 complete control)) | Plant response rating, Barley, Winter (winter barley; postemergence, 62 g ai/ha, scale 0 to 100 (0 no effect, 100 complete control))
35: Plant response rating, Ryegrass, Italian (Italian ryegrass; [4]) | Plant response rating, Wheat (wheat; [5])
45: Plant response rating, Blackgrass (blackgrass; [3]) | Plant response rating, Bromegrass, Downy (downy bromegrass; [3]) | Plant response rating, Bromegrass, Downy (downy bromegrass; [4])
30: Barley, Winter plant response rating (winter barley; [1]) | Plant response rating, Barley, Winter (winter barley; [2]) | Plant response rating, Oat, Wild (wild oat; [4])
40: Plant response rating, Blackgrass (blackgrass; [4]) | Plant response rating, Canarygrass (canarygrass; [3]) | Plant response rating, Canarygrass (canarygrass; [4]) | Plant response rating, Ryegrass, Italian (Italian ryegrass; [3]) | Plant response rating, Oat, Wild (wild oat; [3]) | Plant response rating, Signalgrass (broadleaf signalgrass; [8])
95: Plant response rating, Dallisgrass (dallisgrass; [6]) | Plant response rating, Dallisgrass (dallisgrass; [7]) | Plant response rating, Spiderwort (tropical spiderwort; [7]) | Plant response rating, Itchgrass (itchgrass; [7])
90: Plant response rating, Signalgrass (broadleaf signalgrass; [6]) | Plant response rating, Signalgrass (broadleaf signalgrass; [7]) | Plant response rating, Spiderwort (tropical spiderwort; [9]) | Plant response rating, Spiderwort (tropical spiderwort; [6]) | Plant response rating, Itchgrass (itchgrass; [6])
75: Plant response rating, Nutsedge, Purple (purple nutsedge; [6]) | Plant response rating, Nutsedge, Purple (purple nutsedge; [7])
80: Plant response rating, Dallisgrass (dallisgrass; [9]) | Plant response rating, Itchgrass (itchgrass; [9])
55: Plant response rating, Blackgrass (blackgrass; [2]) | Plant response rating, Bromegrass, Downy (downy bromegrass; [2]) | Plant response rating, Foxtail, Green (green foxtail; [3]) | Plant response rating, Foxtail, Green (green foxtail; [4])
0: Plant response rating, Wheat (wheat; [4])
50: Plant response rating, Itchgrass (itchgrass; [8])
60: Plant response rating, Canarygrass (canarygrass; [2]) | Plant response rating, Foxtail, Green (green foxtail; [2]) | Plant response rating, Windgrass (windgrass; [4]) | Plant response rating, Dallisgrass (dallisgrass; [8])
70: Plant response rating, Windgrass (windgrass; [5]) | Plant response rating, Signalgrass (broadleaf signalgrass; [9])

CCn1nc(C(C)(C)C)cc1C(=O)Nc1cc(C(=O)N(C)C)ccc1F [Compound 6, N-[5-[(dimethylamino)carbonyl]-2-fluorophenyl]-3-(1,1-dimethylethyl)-1-ethyl-1H-pyrazole-5-carboxamide]
95: Plant response rating, Nutsedge, Purple (purple nutsedge; [3]) | Plant response rating, Dallisgrass (dallisgrass; [10]) | Plant response rating, Dallisgrass (dallisgrass; [6]) | Plant response rating, Signalgrass (broadleaf signalgrass; [11]) | Plant response rating, Signalgrass (broadleaf signalgrass; [7]) | Plant response rating, Spiderwort (tropical spiderwort; [1]) | Plant response rating, Spiderwort (tropical spiderwort; [7]) | Plant response rating, Itchgrass (itchgrass; [1]) | Plant response rating, Itchgrass (itchgrass; [11]) | Plant response rating, Itchgrass (itchgrass; [10]) | Plant response rating, Itchgrass (itchgrass; [7])
75: Plant response rating, Nutsedge, Purple (purple nutsedge; [4]) | Plant response rating, Dallisgrass (dallisgrass; [3]) | Plant response rating, Signalgrass (broadleaf signalgrass; [8]) | Plant response rating, Signalgrass (broadleaf signalgrass; [10]) | Plant response rating, Spiderwort (tropical spiderwort; [10]) | Plant response rating, Spiderwort (tropical spiderwort; [3])
90: Plant response rating, Dallisgrass (dallisgrass; [1]) | Plant response rating, Dallisgrass (dallisgrass; [8]) | Plant response rating, Signalgrass (broadleaf signalgrass; [3]) | Plant response rating, Spiderwort (tropical spiderwort; [11]) | Plant response rating, Itchgrass (itchgrass; [8]) | Plant response rating, Itchgrass (itchgrass; [3]) | Plant response rating, Itchgrass (itchgrass; [4])
98: Plant response rating, Signalgrass (broadleaf signalgrass; [1])
60: Plant response rating, Nutsedge, Purple (purple nutsedge; [8]) | Plant response rating, Dallisgrass (dallisgrass; [4]) | Plant response rating, Spiderwort (tropical spiderwort; [4])
100: Plant response rating, Nutsedge, Purple (purple nutsedge; [10]) | Plant response rating, Nutsedge, Purple (purple nutsedge; [6]) | Plant response rating, Nutsedge, Purple (purple nutsedge; [7]) | Plant response rating, Dallisgrass (dallisgrass; [7])
70: Plant response rating, Spiderwort (tropical spiderwort; [8])
35: Plant response rating, Signalgrass (broadleaf signalgrass; [4])
80: Plant response rating, Dallisgrass (dallisgrass; [11]) | Plant response rating, Spiderwort (tropical spiderwort; [6])
